# In patent publication US11427553B2, “Dihydrooxadiazinones” (Bayer Aktiengesellschaft, priority 2017, dated 2022):
# pIC50: −log10 of the molar value.
# Legend:
# PA-1 cells = test: Assay 1 cell proliferation measurement, PA-1; format: cell-based; settings: Homo sapiens, Ovarian teratocarcinoma, read-out: Anti-proliferation IC50 [nM] PA-1
# human full length PDE3A = human full length PDE3A (Homo sapiens (Human), UniProt Q14432); test: Assay 4 PDE3A enzyme inhibition (3H-cAMP SPA); format: biochemical; settings: Sf9 cell extract
# Procedure, shortened: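 Enzyme: Sf9 extract with overexpressed full-length PDE3A; substrate [8-3H]cAMP, 0.025 μCi/well; 60 min, room temperature, Tris/HCl pH 7.5 buffer with MgCl2, EDTA, BSA.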
# NCIH2172 cells = test: Assay 2 cell proliferation measurement, H2172; format: cell-based; settings: Homo sapiens, NCI-H2172, Lung non small cell carcinoma, read-out: Anti-proliferation IC50 [nM] H2172
# Protocol: (§1) Cell Proliferation Measurement
# (§2) The antiproliferative activity of the compounds of the general formula (I) was examined in vitro in human cancer cells. For this purpose, 500 cells, including HeLa cells, A2058 cells, DU145 cells, HMCB cells, IGR37 cells, NCIH1734 cells, OSRC2 cells, or 750 cells, including CAL51 cells, COL0741 cells, DBTRG05MG cells, DKMG cells, G292CLONEA141B1 cells, GB1 cells, HEL cells, HEL9217 cells, JHUEM1 cells, L3.3 cells, LI7 cells, TE4 cells, or 1000 cells, including 8505C cells, HUT78 cells, NCIH1563 cells, NCIH2122 cells, NCIH2172 cells, RVH421 cells, SKMEL3 cells, or 1500 cells, including C32 cells, HS578T cells, JHOM1 cells, NCIH196 cells, OVKATE cells, were plated in 384-well plates with appropriate growth medium and incubated at 37° C. overnight. After 24 h, the cells on the test plate were treated with the compounds of the general formula (I) as and incubated at 37° C. for 72 h. The compounds were added to the cells by means of an HP D300 digital dispenser in a 10 (or more)-step dilution series. As control, the cells were treated with vehicle (DMSO at 0.3% final concentration). After 72 h, the cells were treated with 20 μl/well of 50% CTG solution in PBS (Promega Cell Titer Glo (catalogue #G755B and G756B)) and incubated at room temperature for 10 min, and luminescence was measured by means of a VICTOR V (Perkin Elmer), in order to determine cell viability at the end of treatment. The percentage effect on cell growth and the IC50 derived therefrom were determined for each test substance using the values from untreated wells (=percent viability). The IC50 values were calculated using a 4-parameter fit.
# A2058 cells = test: Assay 2 cell proliferation measurement, A2058; format: cell-based; settings: Homo sapiens, Melanoma, read-out: Anti-proliferation IC50 [nM] A2058
# Protocol: as §1, §2
# [1] = system: IGR-37 xenograft (Melanoma); test: Assay 3 in vivo xenotransplantation model, IGR-37; settings: IGR-37 melanoma xenograft, mice, 10 mg/kg 2QD p.o.; * P < 0.05 vs control
# From the text: In Vivo Xenotransplantation Models
# The anti-tumor activities of Compounds of examples 135 and 146 were examined in murine xenotransplantation models of human cancer. For this purpose, mice were implanted subcutaneously with tumor cells. At a mean tumor size of 20-40 mm^2 animals were randomized into treatment and control groups (at least n=10 animals/group) and treatment started with vehicle only or respective Compound (formulation: 90% PEG400/10% Ethanol; application route: per os (“p.o.”), orally). The oral application volume was 10 ml/kg. In the case of twice daily treatments, the time interval between two applications per day was 6-7 h. The tumor size and the body weight were determined at least weekly. The tumor area was detected by means of an electronic caliper [length (mm)×width (mm)]. The experiment was ended when the study reached the pre-determined ethical endpoint based on German and European animal welfare regulations. In vivo anti-tumor efficacy is presented as T/C ratio at study end (Treatment/Control; mean tumor weight of treatment group/mean tumor weight of control group) in Table 8. A compound having a T/C below 0.5 is defined as active (i.e., effective). Statistical analysis was assessed using SigmaStat software. A one-way analysis of variance was performed and differences to the control were compared by a pair-wise comparison procedure (Dunn's method).
# Sequence of human full length PDE3A (Q14432 whole entry): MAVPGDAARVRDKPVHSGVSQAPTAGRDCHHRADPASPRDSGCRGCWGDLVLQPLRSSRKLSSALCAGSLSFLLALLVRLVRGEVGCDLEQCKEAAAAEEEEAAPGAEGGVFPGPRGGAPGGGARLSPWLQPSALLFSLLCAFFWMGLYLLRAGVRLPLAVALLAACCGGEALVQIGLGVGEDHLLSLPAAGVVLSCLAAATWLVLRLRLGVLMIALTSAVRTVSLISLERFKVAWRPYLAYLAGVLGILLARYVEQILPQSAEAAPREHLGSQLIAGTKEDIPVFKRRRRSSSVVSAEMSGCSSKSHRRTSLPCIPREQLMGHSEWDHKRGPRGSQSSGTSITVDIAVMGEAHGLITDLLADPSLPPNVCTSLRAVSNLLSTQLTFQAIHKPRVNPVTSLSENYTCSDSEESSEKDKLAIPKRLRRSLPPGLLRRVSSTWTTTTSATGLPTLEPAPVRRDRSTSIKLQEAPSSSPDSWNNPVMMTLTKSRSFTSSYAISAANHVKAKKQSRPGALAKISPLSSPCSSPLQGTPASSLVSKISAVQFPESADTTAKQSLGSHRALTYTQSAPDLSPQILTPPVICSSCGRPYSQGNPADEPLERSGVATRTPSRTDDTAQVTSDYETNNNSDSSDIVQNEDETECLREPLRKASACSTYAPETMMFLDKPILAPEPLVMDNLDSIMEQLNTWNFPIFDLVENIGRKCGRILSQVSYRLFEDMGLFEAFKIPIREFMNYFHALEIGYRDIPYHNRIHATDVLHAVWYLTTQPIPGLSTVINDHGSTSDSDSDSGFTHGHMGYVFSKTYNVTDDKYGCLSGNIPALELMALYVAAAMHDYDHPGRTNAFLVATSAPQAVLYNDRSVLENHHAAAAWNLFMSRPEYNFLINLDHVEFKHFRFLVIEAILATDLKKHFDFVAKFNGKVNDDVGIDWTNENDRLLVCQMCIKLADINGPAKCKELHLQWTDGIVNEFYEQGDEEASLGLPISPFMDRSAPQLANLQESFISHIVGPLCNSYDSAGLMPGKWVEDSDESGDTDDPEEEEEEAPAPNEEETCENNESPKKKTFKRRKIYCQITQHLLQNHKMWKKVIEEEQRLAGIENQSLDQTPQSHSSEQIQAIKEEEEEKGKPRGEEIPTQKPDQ
SMILES,pIC50 (human full length PDE3A),IC50 (NCIH2172 cells) [nM],IC50 (PA-1 cells) [nM],IC50 (A2058 cells) [nM],T/C (mean final tumor weight treatment / control) [1]
"O=C1NN=C(c2ccc(-c3ccc(Cl)cc3)c(C(F)(F)F)c2)CO1 [Example 31, 5-[4′-Chloro-2-(trifluoromethyl)biphenyl-4-yl]-3,6-dihydro-2H-1,3,4-oxadiazin-2-one]",6.51,,39,,
"C[C@@H]1OC(=O)NN=C1c1ccc(-c2ccc(F)cc2)c(C(F)(F)F)c1 [Example 135, (6S)-5-[4′-Fluoro-2-(trifluoromethyl)biphenyl-4-yl]-6-methyl-3,6-dihydro-2H-1,3,4-oxadiazin-2-one]",7.06,38,,38,0.06*
"C[C@@H]1OC(=O)NN=C1c1ccc(-n2ccc(C(F)(F)F)n2)c(C(F)(F)F)c1 [Example 265, (6S)-6-Methyl-5-{3-(trifluoromethyl)-4-[3-(trifluoromethyl)-1H-pyrazol-1-yl]phenyl}-3,6-dihydro-2H-1,3,4-oxadiazin-2-one]",,101,,96,0.27*

# More lines, in order of rising pIC50 (human full length PDE3A), values ahead:
pIC50 (human full length PDE3A),IC50 (NCIH2172 cells) [nM],SMILES,IC50 (PA-1 cells) [nM],IC50 (A2058 cells) [nM],T/C (mean final tumor weight treatment / control) [1]
6.55,,"O=C1NN=C(c2ccc(-c3ccc(F)cc3)c(C(F)(F)F)c2)CO1 [Example 3, 5-[4′-Fluoro-2-(trifluoromethyl)biphenyl-4-yl]-3,6-dihydro-2H-1,3,4-oxadiazin-2-one]",22,,
7.40,37,"O=C1NN=C(c2ccc(-c3cnn(C(F)F)c3)c(C(F)(F)F)c2)CO1 [Example 146, 5-{4-[1-(Difluoromethyl)-1H-pyrazol-4-yl]-3-(trifluoromethyl)phenyl}-3,6-dihydro-2H-1,3,4-oxadiazin-2-one]",12,25,0.05*
